Measured values: PubChem BioAssay (NCI)
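In this assay, cells in 96-well plates receive the compound at five concentrations for 48 hours. Endpoints are linearly interpolated between the surrounding concentrations. GI50 is the concentration that inhibits growth by half. TGI: total growth inhibition.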

Legend:
Assay in all cases: growth of human tumour cells (NCI), 48 h
RPMI-8226 leukemia = test system: RPMI-8226 leukemia
OVCAR-8 ovarian = test system: OVCAR-8 ovarian
HL-60(TB) leukemia = test system: HL-60(TB) leukemia
NCI-H460 lung = test system: NCI-H460 lung
HS 578T breast = test system: HS 578T breast
HT29 colon = test system: HT29 colon
SR leukemia = test system: SR leukemia
HCT-116 colon = test system: HCT-116 colon
MDA-MB-231 breast = test system: MDA-MB-231 breast
CCRF-CEM leukemia = test system: CCRF-CEM leukemia
MOLT-4 leukemia = test system: MOLT-4 leukemia
K-562 leukemia = test system: K-562 leukemia
LOX IMVI melanoma = test system: LOX IMVI melanoma
OVCAR-3 ovarian = test system: OVCAR-3 ovarian
SK-MEL-2 melanoma = test system: SK-MEL-2 melanoma
HCC-2998 colon = test system: HCC-2998 colon
SF-268 CNS = test system: SF-268 CNS
UO-31 renal = test system: UO-31 renal
PC-3 prostate = test system: PC-3 prostate
HCT-15 colon = test system: HCT-15 colon
MALME-3M melanoma = test system: MALME-3M melanoma
NCI-H23 lung = test system: NCI-H23 lung
M14 melanoma = test system: M14 melanoma
HOP-92 NSCLC = test system: HOP-92 NSCLC
SK-OV-3 ovarian = test system: SK-OV-3 ovarian
CAKI-1 renal = test system: CAKI-1 renal
A498 renal = test system: A498 renal
SF-539 CNS = test system: SF-539 CNS
OVCAR-5 ovarian = test system: OVCAR-5 ovarian
SW-620 colon = test system: SW-620 colon
KM12 colon = test system: KM12 colon
SF-295 CNS = test system: SF-295 CNS
ACHN renal = test system: ACHN renal
COLO 205 colon = test system: COLO 205 colon
786-0 renal = test system: 786-0 renal
NCI/ADR-RES ovarian = test system: NCI/ADR-RES ovarian
TK-10 renal = test system: TK-10 renal
OVCAR-4 ovarian = test system: OVCAR-4 ovarian
MCF7 breast = test system: MCF7 breast
SK-MEL-5 melanoma = test system: SK-MEL-5 melanoma
SNB-75 CNS = test system: SNB-75 CNS
A549 NSCLC = test system: A549 NSCLC
MDA-MB-435 = test system: MDA-MB-435
EKVX NSCLC = test system: EKVX NSCLC
UACC-62 melanoma = test system: UACC-62 melanoma
RXF 393 renal = test system: RXF 393 renal
DU-145 prostate = test system: DU-145 prostate
U251 CNS = test system: U251 CNS
HOP-62 NSCLC = test system: HOP-62 NSCLC
SNB-19 CNS = test system: SNB-19 CNS
NCI-H226 lung = test system: NCI-H226 lung

Structure (SMILES): COc1cc(/C=C/C(=O)c2c(C)nc3ccccc3c2/C=C/c2ccccc2)cc(OC)c1OC
- GI50 (RPMI-8226 leukemia): 2.21 µM
- TGI (RPMI-8226 leukemia): > 100 µM
- GI50 (OVCAR-8 ovarian): 1.78 µM
- TGI (OVCAR-8 ovarian): > 100 µM
- GI50 (HL-60(TB) leukemia): 1.63 µM
- TGI (HL-60(TB) leukemia): 6 µM
- GI50 (NCI-H460 lung): 1.86 µM
- TGI (NCI-H460 lung): 4.96 µM
- GI50 (HS 578T breast): 4.2 µM
- TGI (HS 578T breast): > 100 µM
- GI50 (HT29 colon): 1.87 µM
- TGI (HT29 colon): > 100 µM
- GI50 (SR leukemia): 1.14 µM
- TGI (SR leukemia): 6.54 µM
- GI50 (HCT-116 colon): 0.514 µM
- TGI (HCT-116 colon): 1.91 µM
- GI50 (MDA-MB-231 breast): 2.15 µM
- TGI (MDA-MB-231 breast): > 100 µM
- GI50 (CCRF-CEM leukemia): 2.09 µM
- TGI (CCRF-CEM leukemia): > 100 µM
- GI50 (MOLT-4 leukemia): 2.21 µM
- TGI (MOLT-4 leukemia): 8.61 µM
- GI50 (K-562 leukemia): 0.827 µM
- TGI (K-562 leukemia): > 100 µM
- GI50 (LOX IMVI melanoma): 1.42 µM
- TGI (LOX IMVI melanoma): 2.78 µM

Structure (SMILES): Cc1ccc(S(=O)(=O)NC(=O)Nc2nnc(S(N)(=O)=O)s2)cc1
- TGI (OVCAR-3 ovarian): > 100 µM
- TGI (SK-MEL-2 melanoma): > 100 µM
- TGI (HCC-2998 colon): > 100 µM
- TGI (SF-268 CNS): > 100 µM
- TGI (UO-31 renal): > 100 µM
- TGI (PC-3 prostate): > 100 µM
- TGI (HCT-15 colon): > 100 µM
- TGI (RPMI-8226 leukemia): > 100 µM
- TGI (OVCAR-8 ovarian): > 100 µM
- TGI (MALME-3M melanoma): > 100 µM
- TGI (HL-60(TB) leukemia): > 100 µM
- TGI (NCI-H23 lung): > 100 µM
- TGI (M14 melanoma): > 100 µM
- TGI (HOP-92 NSCLC): > 100 µM
- TGI (SK-OV-3 ovarian): > 100 µM
- TGI (CAKI-1 renal): > 100 µM
- TGI (NCI-H460 lung): > 100 µM
- TGI (A498 renal): > 100 µM
- TGI (SF-539 CNS): > 100 µM
- TGI (HS 578T breast): > 100 µM
- TGI (OVCAR-5 ovarian): > 100 µM
- TGI (SW-620 colon): > 100 µM
- TGI (KM12 colon): > 100 µM
- TGI (SF-295 CNS): > 100 µM
- TGI (ACHN renal): > 100 µM
- TGI (COLO 205 colon): > 100 µM
- TGI (HT29 colon): > 100 µM
- TGI (786-0 renal): > 100 µM
- TGI (NCI/ADR-RES ovarian): > 100 µM
- TGI (TK-10 renal): > 100 µM
- TGI (OVCAR-4 ovarian): > 100 µM
- TGI (MCF7 breast): > 100 µM
- TGI (SR leukemia): > 100 µM
- TGI (HCT-116 colon): > 100 µM
- TGI (MDA-MB-231 breast): > 100 µM
- TGI (SK-MEL-5 melanoma): > 100 µM
- TGI (SNB-75 CNS): > 100 µM
- TGI (CCRF-CEM leukemia): > 100 µM
- TGI (A549 NSCLC): > 100 µM
- TGI (MOLT-4 leukemia): > 100 µM
- TGI (MDA-MB-435): > 100 µM
- TGI (EKVX NSCLC): > 100 µM
- TGI (UACC-62 melanoma): > 100 µM
- TGI (RXF 393 renal): > 100 µM
- TGI (K-562 leukemia): > 100 µM
- TGI (DU-145 prostate): > 100 µM
- TGI (U251 CNS): > 100 µM
- TGI (HOP-62 NSCLC): > 100 µM
- TGI (LOX IMVI melanoma): > 100 µM
- TGI (SNB-19 CNS): > 100 µM
- TGI (NCI-H226 lung): > 100 µM
